These results are taken from article PMC7180617, “Biological Evaluation of 3-Benzylidenechromanones and Their Spiropyrazolines-Based Analogues” (Molecules, 2020).

In data set [1] the test system is NALM-6 cells. As to the kind of experiment: MTT cytotoxicity assay, NALM-6. It counts as cell-based, human. Conditions: Homo sapiens, NALM-6, 48 h, MTT, 46 h + 2 h incubation. On the procedure: (§1) The first stage of the study used the MTT viability test to determine the cytotoxicity of ten compounds, i.e., 3-arylidenechromanone, 3-arylideneflavanone, spirochromanone and spiro- flavanone analogues, against four human cancer cell lines: HL-60, NALM-6, WM-115 and COLO-205.
(§2) Cytotoxicity was tested against human skin melanoma cells (WM-115, ECACC, Salisbury, UK), two human leukemia cell lines, viz. promyelocytic leukemia (HL-60) and lymphoblastic leukemia (NALM-6), and human colon adenocarcinoma cells (COLO-205). The cell lines COLO-205, WM-115 and HL-60 used in this work came from the ATCC American Type Culture Collection (Manassas, VA, USA), whereas the NALM-6 cell line was purchased from the German Collection of Microorganisms and Cell Cultures (Braunschweig, Germany). The leukaemia cells and colon adenocarcinoma were cultured in RPMI 1640 medium (Invitrogen, Grand Island, NY, USA) supplemented with 10% fetal bovine serum (FBS; Invitrogen) and gentamicin (25 µg/mL; KRKA, Novo Mesto, Slovenia). For melanoma WM-115 cells, Dulbecco’s minimal essential medium (DMEM; Invitrogen) was used. All cell lines were cultured at 37 °C in a humidified atmosphere of 5% CO2 in air.
(§3) For all experiments, the studied compounds were dissolved in DMSO (Sigma-Aldrich) and were further diluted in culture medium to obtain <0.1% DMSO concentration. In each experiment, controls with and without 0.1% DMSO were performed. The cytotoxicity of all compounds and of the reference compounds 4-chromanone and 3-benzylideneflavanone was determined by the MTT assay, i.e., 3-(4,5-dimethylthiazol-2-yl)-2,5-diphenyltetrazolium bromide (Sigma, St. Louis, MO, USA), which measures cellular dehydrogenase activity. Exponentially growing cells were seeded a day before the experiment onto a 96-well microplates (Nunc, Roskilde, Denmark) at a density up to 6–8 × 10^3 cells/well (depending on the cell line). Subsequently, various concentrations of the studied compounds freshly prepared in DMSO and diluted with complete culture medium were added. All compounds were tested for their cytotoxicity at a final concentration of 10^−7–10^−3 M. After 46 h of incubation with the studied compounds, the cells were treated with the MTT reagent and incubation was continued for another two hours. MTT – formazan crystals were dissolved in 20% sodium dodecyl sulphate (SDS, Sigma-Aldrich) and 50% DMF (Sigma-Aldrich) at pH 4.7; following this, absorbance was read at 570 nm on a multifunctional Victor ELISA-plate reader (Perkin Elmer, Turku, Finland). The IC50 values, i.e., the concentration of the test compound required to reduce the cell survival fraction to 50% of controls, were calculated from concentration-response curves and used as a measure of the sensitivity of the cells to a given treatment. As a control, cultured cells were grown in the absence of drugs. The data points represent the means of at least five to ten repeats ± standard deviation (S.D.).
A general note: Tetrazolium dyes change colour on reduction, which living cells bring about.

The subject of data set [2] is red blood cells (RBC membrane integrity). As to the kind of experiment: Red blood cell lysis assay. As to conditions: 2% RBC suspension, 37 °C, 1 h. Type of data set: cell-based. The text has this:
All synthesized compounds with potential biological activity have to be tested for blood compatibility since xenobiotics will react with blood cells upon administration. In this case, biocompatibility refers to the quantification of cellular and plasma components of the blood. The measurement of the integrity of RBC membrane is considered a simple and reliable method for estimating hemocompatibility.
The studies on biological material were approved by the Bioethics Committee of the Medical University of Lodz, Poland (RNN/109/16/KE). The blood samples were obtained from healthy donors at the Blood Donation Centre in Lodz. The procedure for plasma preparation for erythrotoxicity studies was described previously. The influence of synthesized compounds as well as two reference compounds flavanone and chromanone on RBC membrane integrity was performed by lysis assay which was conducted according to our previous protocol. Briefly, 2% RBC suspension in 0.9% NaCl was incubated at 37 °C for one hour with the tested compounds at various concentrations corresponding to their activity towards cancer cell lines or 0.9% NaCl (control). The samples were centrifuged at 3000 rpm for 10 min and the absorbance of the supernatant was measured at 550 nm. The results are presented as percentage of haemolysis where a sample containing 10 μL of 2.0% v/v Triton X-100 was regarded as a positive control contributing to 100% of haemolysis. A sample containing saline solution represented spontaneous haemolysis of RBCs (control). The studies were performed on four biological samples obtained from different blood donors (n = 4). The results are presented as mean ± standard deviation (SD). The coefficient of variability for the method was counted: W = 9.51%, n = 5.

In data set [3] the test system is COLO-205 cells. The data set is described as follows: MTT cytotoxicity assay, COLO-205. Conditions: Homo sapiens, COLO 205, 48 h, 46 h + 2 h incubation. It counts as cell-based, human. As for the experimental part:
as §1, §2, §3

Turning to `O=C1/C(=C/c2ccccc2)COc2ccccc21` [Compound 7, (E)-3-benzylidene-chroman-4-one], the results for the IC50 in data set [1] and in data set [3] were 6.83 ± 0.18 µM and 31 ± 1.4 µM, respectively. Besides, the “effect on RBC hemolysis / erythrocyte membrane integrity (in words)” value in data set [2] is “no significant effects on RBC hemolysis were observed up to 35 µM”.
